Experimental data published in patent US11618743B2, “Herbicidal compounds” (SYNGENTA PARTICIPATIONS AG, priority 2017, dated 2023).
Read-outs that look alike come from different tables or passages of the source.

Assays:
Assay type in all cases: in vivo
[1] = tested on: Amaranthus retroflexus (AMARE); assay: Post-emergence efficacy, Method B; settings: 360 h, evaluated after 15 days, read-out: Control of weed species after post-emergence application, AMARE (100=total damage to plant; 0=no damage to plant); for pest or weed control at 1000 g/ha: Application Rate 1000 g/Ha; for pest or weed control at 500 g/ha: Application Rate 500 g/Ha
Experimental: (§1) An “instant formulation”, known as the IF50, containing 50 g/L of the “technical” (i.e. unformulated) active ingredient was prepared by dissolving the active ingredient in a mixture of organic solvents and emulsifier, details of which are provided in the table. This IF50 was then mixed with a small, variable amount of acetone to aid dissolution, before addition of an aqueous solution of 1% v/v ammonium sulphate+1% v/v Empicol ESC70 (Sodium lauryl ether sulphate) adjuvant, as the aqueous diluent, to form an aqueous spray solution which contains a predetermined concentration of the active ingredient (which varies depending on the application rate of the active ingredient to the plants).
(§2) Composition of the mixture of organic solvents and emulsifier used as a base for the instant formulation.
(§3) This aqueous spray solution was then sprayed onto the plants, after about 12 days' cultivation. The plants were grown from seeds sown in standard soil, placed in a glasshouse under controlled conditions (at 24/18° C. or 20/16° C., day/night; 16 hours light; 65% humidity). After spray application the plants were then grown on in a glasshouse under the same conditions and watered twice daily. After 15 days the test was evaluated (100=total damage to plant; 0=no damage to plant).
(§4) Ipomoea hederacea (IPOHE), Euphorbia heterophylla (EPHHL), Chenopodium album (CHEAL), 20 Amaranthus retroflexus (AMARE), Lolium perenne (LOLPE), Digitaria sanguinalis (DIGSA), Eleusine indica (ELEIN), Echinochloa crus-galli (ECHCG), Setaria faberi (SETFA)

[2] = tested on: Chenopodium album (CHEAL); assay: Post-emergence efficacy, Method B; settings: 360 h, read-out: Control of weed species after post-emergence application, CHEAL (100=total damage to plant; 0=no damage to plant)
Experimental: as §1, §2, §3, §4

[3] = tested on: Digitaria sanguinalis (DIGSA); assay: Post-emergence efficacy, Method B; settings: 360 h, evaluated after 15 days, read-out: Control of weed species after post-emergence application, DIGSA (100=total damage to plant; 0=no damage to plant); for pest or weed control at 1000 g/ha: Application Rate 1000 g/Ha; for pest or weed control at 500 g/ha: Application Rate 500 g/Ha
Experimental: as §1, §2, §3, §4

[4] = tested on: Echinochloa crus-galli (ECHCG); assay: Post-emergence efficacy, Method B; settings: 360 h, read-out: Control of weed species after post-emergence application, ECHCG (100=total damage to plant; 0=no damage to plant)
Experimental: as §1, §2, §3, §4

[5] = tested on: Eleusine indica (ELEIN); assay: Post-emergence efficacy, Method B; settings: 360 h, read-out: Control of weed species after post-emergence application, ELEIN (100=total damage to plant; 0=no damage to plant)
Experimental: as §1, §2, §3, §4

[6] = tested on: Euphorbia heterophylla (EPHHL); assay: Post-emergence efficacy, Method B; settings: 360 h, evaluated after 15 days, read-out: Control of weed species after post-emergence application, EPHHL (100=total damage to plant; 0=no damage to plant); for pest or weed control at 1000 g/ha: Application Rate 1000 g/Ha; for pest or weed control at 500 g/ha: Application Rate 500 g/Ha
Experimental: as §1, §2, §3, §4

[7] = tested on: Ipomoea hederacea (IPOHE); assay: Post-emergence efficacy, Method B; settings: 360 h, read-out: Control of weed species after post-emergence application, IPOHE (100=total damage to plant; 0=no damage to plant)
Experimental: as §1, §2, §3, §4

[8] = tested on: Lolium perenne (LOLPE); assay: Post-emergence efficacy, Method B; settings: 360 h, read-out: Control of weed species after post-emergence application, LOLPE (100=total damage to plant; 0=no damage to plant)
Experimental: as §1, §2, §3, §4

[9] = tested on: Setaria faberi (SETFA); assay: Post-emergence efficacy, Method B; settings: 360 h, evaluated after 15 days, read-out: Control of weed species after post-emergence application, SETFA (100=total damage to plant; 0=no damage to plant); for pest or weed control at 1000 g/ha: Application Rate 1000 g/Ha; for pest or weed control at 500 g/ha: Application Rate 500 g/Ha
Experimental: as §1, §2, §3, §4

[10] = tested on: Digitaria sanguinalis (DIGSA); assay: Post-emergence efficacy, Method A; settings: Application rate 500 g/Ha; evaluated after 13 days; 100=total damage to plant, 0=no damage
Outline: (§5)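 Glasshouse post-emergence test: 14-day plants sprayed, then maintained at 24/16 °C day/night, 14 h photoperiod, 65% humidity. Evaluation at day 13 uses a percentage damage scale (100 = plant fully damaged).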

[11] = tested on: Echinochloa crus-galli (ECHCG); assay: Post-emergence efficacy, Method A; settings: Application rate 500 g/Ha; evaluated after 13 days; 100=total damage to plant, 0=no damage
Outline: as §5

[12] = tested on: Setaria faberi (SETFA); assay: Post-emergence efficacy, Method A; settings: Application rate 500 g/Ha; evaluated after 13 days; 100=total damage to plant, 0=no damage
Outline: as §5

[13] = Method B, Application Rate 1000 g/Ha, evaluated after 15 days
[14] = Method B, Application Rate 500 g/Ha, evaluated after 15 days

Compound | pest or weed control at 1000 g/ha [1] [%] | pest or weed control at 1000 g/ha [2] [%] | pest or weed control at 1000 g/ha [3] [%] | pest or weed control at 1000 g/ha [4] [%] | pest or weed control at 1000 g/ha [5] [%] | pest or weed control at 1000 g/ha [6] [%] | pest or weed control at 1000 g/ha [7] [%] | pest or weed control at 1000 g/ha [8] [%] | pest or weed control at 1000 g/ha [9] [%] | also measured
O=S(=O)([O-])CC[n+]1ccc(-c2cccnn2)cn1 [Compound A213, 2-(4-pyridazin-1-ium-3-ylpyridazin-1-ium-1-yl)ethanesulfonate chloride] | 100 | 80 | 100 | 100 | 100 | 100 | 80 | 90 | 100 | 
O=C(O)CC[n+]1ccc(-c2cccnn2)cn1 [Compound A138, 3-(4-pyridazin-3-ylpyridazin-1-ium-1-yl)propanoic acid chloride] | 100 | 100 | 100 | 100 | 100 | 100 | 40 | 100 | 100 | 
O=C([O-])CCC[n+]1ccc(-c2ncccn2)cn1 [Compound A220] | 100 |  | 100 |  |  | 100 |  |  | 30 | pest or weed control at 1000 g/ha [2, 13]: 90%; pest or weed control at 1000 g/ha [4, 13]: 90%; pest or weed control at 1000 g/ha [5, 13]: 100%; pest or weed control at 1000 g/ha [7, 13]: 30%; pest or weed control at 1000 g/ha [8, 13]: 90%
Cl.N[C@@H](CCC[n+]1ccc(-c2ncccn2)cn1)C(=O)O.[Cl-] [Compound A211, [(1S)-1-carboxy-4-(4-pyrimidin-2-ylpyridazin-1-ium-1-yl)butyl]ammonium Dichloride] |  |  |  |  |  |  |  |  |  | Control of weed species after post-emergence application, DIGSA [10]: 100; Control of weed species after post-emergence application, ECHCG [11]: 100; Control of weed species after post-emergence application, SETFA [12]: 100; pest or weed control at 500 g/ha [1]: 100%; pest or weed control at 500 g/ha [2]: 90%; pest or weed control at 500 g/ha [3]: 100%; pest or weed control at 500 g/ha [4]: 100%; pest or weed control at 500 g/ha [5]: 100%; pest or weed control at 500 g/ha [6]: 80%; pest or weed control at 500 g/ha [7]: 100%; pest or weed control at 500 g/ha [8]: 10%; pest or weed control at 500 g/ha [9]: 100%
O=S(=O)([O-])CC[n+]1ccc(-c2ccncn2)cn1 [Compound A4] |  |  |  |  |  |  |  |  |  | pest or weed control at 500 g/ha [1]: 100%; pest or weed control at 500 g/ha [2, 14]: 80%; pest or weed control at 500 g/ha [3]: 100%; pest or weed control at 500 g/ha [4, 14]: 70%; pest or weed control at 500 g/ha [5, 14]: 80%; pest or weed control at 500 g/ha [6]: 100%; pest or weed control at 500 g/ha [7, 14]: 100%; pest or weed control at 500 g/ha [8, 14]: 90%; pest or weed control at 500 g/ha [9]: 40%
N[C@H](CC[n+]1ccc(-c2ncccn2)cn1)C(=O)O [Compound A207, [(1R)-1-carboxy-3-(4-pyrimidin-2-ylpyridazin-1-ium-1-yl)propyl]ammonium 2,2,2-trifluoroacetate] | 100 | 90 | 90 | 100 | 100 | 70 | 100 | 20 | 100 | 
Nc1ccnc(-c2cc[n+](CCC(=O)O)nc2)n1 [Compound A41] | 100 | 90 | 100 | 100 | 50 | 100 | 20 | 60 | 100 | 
N#C[N-]C(=O)CC[n+]1ccc(-c2ncccn2)cn1 [Compound A226] | 100 |  | 100 |  |  |  |  |  | 70 | pest or weed control at 1000 g/ha [2, 13]: 100%; pest or weed control at 1000 g/ha [4, 13]: 100%; pest or weed control at 1000 g/ha [7, 13]: 100%; pest or weed control at 1000 g/ha [8, 13]: 70%
O=C(O)CC[n+]1ccc(-c2ccncn2)cn1 [Compound A28] | 100 | 90 | 100 | 100 | 100 | 100 | 100 | 70 | 40 | 
